Measured values: patent US20020090380A1, “Novel formulation comprising thymol useful in the treatment of drug resistant bacterial infections” (priority 2000, published 2002)
Like-named read-outs stand apart in the source and are kept apart here.

Columns and labels:
[1] = test system: Ethidium bromide resistant strain of Mycobacterium smegmetis; type: cell-based
[2] = test system: Nal^R mutants of E. coli; type: cell-based, Escherichia coli
[3] = test system: E. coli CA 8000 (WT); type: cell-based, Escherichia coli
[4] = test system: lomefloxacin resistant cells of E. coli; type: cell-based, Escherichia coli
[5] = test system: E. coli cells; experiment: microbe, parasite or virus in culture; type: cell-based; conditions: Escherichia coli
[6] = test system: Lom^R mutants of Mycobacterium smegmatis; type: cell-based; conditions: Lom^R mutants isolated in medium with 20 μg/ml lomefloxacin
[7] = CA 8000 (WT), 20 μg/ml, Table 4

CN(C)[C@@H]1C(O)=C(C(N)=O)C(=O)[C@@]2(O)C(O)=C3C(=O)c4c(O)cccc4[C@@](C)(O)[C@H]3C[C@@H]12 [Tetracycline]
concentration against which the strain is resistant (mdr) [1]: 10 µg/mL

O=C(N[C@H](CO)[C@H](O)c1ccc([N+](=O)[O-])cc1)C(Cl)Cl [Chloromphenicol]
concentration against which the strain is resistant (mdr) [1]: 20 µg/mL

CCn1cc(C(=O)O)c(=O)c2ccc(C)nc21 [Nalidixic Acid, nalidixic acid]
Growth in poison agar medium ([2]; CAN 101, 50 μg/ml): + | Growth in poison agar medium ([2]; CAN 102, 50 μg/ml): + | Growth in poison agar medium ([2]; CAN 103, 50 μg/ml): + | Growth in poison agar medium ([2]; CAN 104, 50 μg/ml): + | Growth in poison agar medium ([2]; CAN 105, 50 μg/ml): + | Growth in poison agar medium ([2]; CAN 106, 50 μg/ml): + | Growth in poison agar medium ([2]; CAN 107, 50 μg/ml): + | Growth in poison agar medium ([2]; CAN 108, 50 μg/ml): + | Growth in poison agar medium ([2]; CAN 109, 50 μg/ml): + | Growth in poison agar medium ([2]; CAN 110, 50 μg/ml): + | Growth in poison agar medium ([2]; CAN 111, 50 μg/ml): + | Growth in poison agar medium ([2]; CAN 112, 50 μg/ml): + | Growth in poison agar medium ([2]; CAN 113, 50 μg/ml): + | Growth in poison agar medium ([2]; CAN 114, 50 μg/ml): + | Growth in poison agar medium ([2]; CAN 115, 50 μg/ml): + | Growth in poison agar medium ([2]; CAN 116, 50 μg/ml): + | Growth in poison agar medium ([2]; CAN 117, 50 μg/ml): + | Growth in poison agar medium ([2]; CAN 118, 50 μg/ml): + | Growth in poison agar medium ([2]; CAN 119, 50 μg/ml): + | Growth in poison agar medium ([2]; CAN 120, 50 μg/ml): + | Growth in poison agar medium ([2]; CAN 121, 50 μg/ml): + | Growth in poison agar medium ([2]; CAN 122, 50 μg/ml): + | Growth in poison agar medium ([2]; CAN 123, 50 μg/ml): + | Growth in poison agar medium ([2]; CAN 124, 50 μg/ml): + | Growth in poison agar medium ([2]; CAN 125, 50 μg/ml): + | Growth in poison agar medium ([2]; CAN 126, 50 μg/ml): + | Growth in poison agar medium ([3]; CA 8000 (WT), 50 μg/ml, Table 2): − | Growth in poison agar medium ([3]; CA 8000 (WT), 50 μg/ml, Table 4): − | Growth in poison agar medium ([4]; CAL 101, 50 μg/ml): + | Growth in poison agar medium ([4]; CAL 102, 50 μg/ml): + | Growth in poison agar medium ([4]; CAL 103, 50 μg/ml): + | Growth in poison agar medium ([4]; CAL 104, 50 μg/ml): + | Growth in poison agar medium ([4]; CAL 105, 50 μg/ml): + | Growth in poison agar medium ([4]; CAL 106, 50 μg/ml): + | Growth in poison agar medium ([4]; CAL 107, 50 μg/ml): + | Growth in poison agar medium ([4]; CAL 108, 50 μg/ml): + | zone of inhibition at 0.25 µg/disc ([5]; nalidixic acid 0.25 μg/disc): 3 mm | zone of inhibition at 0.5 µg/disc ([5]; nalidixic acid 0.50 μg/disc): 6 mm | zone of inhibition at 1 µg/disc ([5]; nalidixic acid 1.00 μg/disc): 9 mm | zone of inhibition at 1.5 µg/disc ([5]; nalidixic acid 1.50 μg/disc): 11 mm | zone of inhibition at 2 µg/disc ([5]; nalidixic acid 2.00 μg/disc): 12 mm

C[C@@H]1CN(c2c(F)c(N)c3c(=O)c(C(=O)O)cn(C4CC4)c3c2F)C[C@H](C)N1 [Sparfloxacin]
Growth in poison agar medium ([2]; CAN 101, 5 μg/ml): + | Growth in poison agar medium ([2]; CAN 102, 5 μg/ml): + | Growth in poison agar medium ([2]; CAN 103, 5 μg/ml): + | Growth in poison agar medium ([2]; CAN 104, 5 μg/ml): + | Growth in poison agar medium ([2]; CAN 105, 5 μg/ml): + | Growth in poison agar medium ([2]; CAN 106, 5 μg/ml): + | Growth in poison agar medium ([2]; CAN 107, 5 μg/ml): + | Growth in poison agar medium ([2]; CAN 108, 5 μg/ml): + | Growth in poison agar medium ([2]; CAN 109, 5 μg/ml): + | Growth in poison agar medium ([2]; CAN 110, 5 μg/ml): + | Growth in poison agar medium ([2]; CAN 111, 5 μg/ml): + | Growth in poison agar medium ([2]; CAN 112, 5 μg/ml): + | Growth in poison agar medium ([2]; CAN 113, 5 μg/ml): + | Growth in poison agar medium ([2]; CAN 114, 5 μg/ml): + | Growth in poison agar medium ([2]; CAN 115, 5 μg/ml): + | Growth in poison agar medium ([2]; CAN 116, 5 μg/ml): + | Growth in poison agar medium ([2]; CAN 117, 5 μg/ml): + | Growth in poison agar medium ([2]; CAN 118, 5 μg/ml): + | Growth in poison agar medium ([2]; CAN 119, 5 μg/ml): + | Growth in poison agar medium ([2]; CAN 120, 5 μg/ml): + | Growth in poison agar medium ([2]; CAN 121, 5 μg/ml): + | Growth in poison agar medium ([2]; CAN 122, 5 μg/ml): + | Growth in poison agar medium ([2]; CAN 123, 5 μg/ml): + | Growth in poison agar medium ([2]; CAN 124, 5 μg/ml): + | Growth in poison agar medium ([2]; CAN 125, 5 μg/ml): + | Growth in poison agar medium ([2]; CAN 126, 5 μg/ml): + | Growth in poison agar medium ([3]; CA 8000 (WT), 5 μg/ml, Table 2): − | Growth in poison agar medium [3, 7]: − | Growth in poison agar medium ([4]; CAL 101, 20 μg/ml): + | Growth in poison agar medium ([4]; CAL 102, 20 μg/ml): + | Growth in poison agar medium ([4]; CAL 103, 20 μg/ml): + | Growth in poison agar medium ([4]; CAL 104, 20 μg/ml): + | Growth in poison agar medium ([4]; CAL 105, 20 μg/ml): + | Growth in poison agar medium ([4]; CAL 106, 20 μg/ml): + | Growth in poison agar medium ([4]; CAL 107, 20 μg/ml): + | Growth in poison agar medium ([4]; CAL 108, 20 μg/ml): +

CCn1cc(C(=O)O)c(=O)c2cc(F)c(N3CCNC(C)C3)c(F)c21 (centres unmarked) [Lomefloxacin, lomefloxacin]
Growth in poison agar medium ([2]; CAN 101, 5 μg/ml): − | Growth in poison agar medium ([2]; CAN 102, 5 μg/ml): − | Growth in poison agar medium ([2]; CAN 103, 5 μg/ml): − | Growth in poison agar medium ([2]; CAN 104, 5 μg/ml): − | Growth in poison agar medium ([2]; CAN 105, 5 μg/ml): − | Growth in poison agar medium ([2]; CAN 106, 5 μg/ml): − | Growth in poison agar medium ([2]; CAN 107, 5 μg/ml): − | Growth in poison agar medium ([2]; CAN 108, 5 μg/ml): − | Growth in poison agar medium ([2]; CAN 109, 5 μg/ml): − | Growth in poison agar medium ([2]; CAN 110, 5 μg/ml): − | Growth in poison agar medium ([2]; CAN 111, 5 μg/ml): − | Growth in poison agar medium ([2]; CAN 112, 5 μg/ml): − | Growth in poison agar medium ([2]; CAN 113, 5 μg/ml): − | Growth in poison agar medium ([2]; CAN 114, 5 μg/ml): − | Growth in poison agar medium ([2]; CAN 115, 5 μg/ml): − | Growth in poison agar medium ([2]; CAN 116, 5 μg/ml): − | Growth in poison agar medium ([2]; CAN 117, 5 μg/ml): − | Growth in poison agar medium ([2]; CAN 118, 5 μg/ml): − | Growth in poison agar medium ([2]; CAN 119, 5 μg/ml): − | Growth in poison agar medium ([2]; CAN 120, 5 μg/ml): − | Growth in poison agar medium ([2]; CAN 121, 5 μg/ml): − | Growth in poison agar medium ([2]; CAN 122, 5 μg/ml): − | Growth in poison agar medium ([2]; CAN 123, 5 μg/ml): − | Growth in poison agar medium ([2]; CAN 124, 5 μg/ml): − | Growth in poison agar medium ([2]; CAN 125, 5 μg/ml): − | Growth in poison agar medium ([2]; CAN 126, 5 μg/ml): − | Growth in poison agar medium [3]: − | Growth in poison agar medium ([4]; CAL 101, 1.5 μg/ml): + | Growth in poison agar medium ([4]; CAL 102, 1.5 μg/ml): + | Growth in poison agar medium ([4]; CAL 103, 1.5 μg/ml): + | Growth in poison agar medium ([4]; CAL 104, 1.5 μg/ml): + | Growth in poison agar medium ([4]; CAL 105, 1.5 μg/ml): + | Growth in poison agar medium ([4]; CAL 106, 1.5 μg/ml): + | Growth in poison agar medium ([4]; CAL 107, 1.5 μg/ml): + | Growth in poison agar medium ([4]; CAL 108, 1.5 μg/ml): + | concentration upto which the mutants were resistant [6]: ≤ 60 µg/mL

CO[C@H]1/C=C/O[C@@]2(C)Oc3c(C)c(O)c4c(O)c(c(/C=N/N5CCN(C)CC5)c(O)c4c3C2=O)NC(=O)/C(C)=C\C=C\[C@H](C)[C@H](O)[C@@H](C)[C@@H](O)[C@@H](C)[C@H](OC(C)=O)[C@@H]1C [Rifampicin]
concentration against which the strain is resistant (mdr) [1]: 40 µg/mL

CCn1cc(C(=O)O)c(=O)c2cc3c(cc21)OCO3 [Oxolinic Acid, oxolinic acid]
Growth in poison agar medium ([2]; CAN 101, 5 μg/ml): − | Growth in poison agar medium ([2]; CAN 102, 5 μg/ml): − | Growth in poison agar medium ([2]; CAN 103, 5 μg/ml): − | Growth in poison agar medium ([2]; CAN 104, 5 μg/ml): − | Growth in poison agar medium ([2]; CAN 105, 5 μg/ml): − | Growth in poison agar medium ([2]; CAN 106, 5 μg/ml): + | Growth in poison agar medium ([2]; CAN 107, 5 μg/ml): + | Growth in poison agar medium ([2]; CAN 108, 5 μg/ml): + | Growth in poison agar medium ([2]; CAN 109, 5 μg/ml): + | Growth in poison agar medium ([2]; CAN 110, 5 μg/ml): + | Growth in poison agar medium ([2]; CAN 111, 5 μg/ml): + | Growth in poison agar medium ([2]; CAN 112, 5 μg/ml): − | Growth in poison agar medium ([2]; CAN 113, 5 μg/ml): + | Growth in poison agar medium ([2]; CAN 114, 5 μg/ml): + | Growth in poison agar medium ([2]; CAN 115, 5 μg/ml): + | Growth in poison agar medium ([2]; CAN 116, 5 μg/ml): + | Growth in poison agar medium ([2]; CAN 117, 5 μg/ml): + | Growth in poison agar medium ([2]; CAN 118, 5 μg/ml): + | Growth in poison agar medium ([2]; CAN 119, 5 μg/ml): − | Growth in poison agar medium ([2]; CAN 120, 5 μg/ml): − | Growth in poison agar medium ([2]; CAN 121, 5 μg/ml): + | Growth in poison agar medium ([2]; CAN 122, 5 μg/ml): + | Growth in poison agar medium ([2]; CAN 123, 5 μg/ml): + | Growth in poison agar medium ([2]; CAN 124, 5 μg/ml): + | Growth in poison agar medium ([2]; CAN 125, 5 μg/ml): + | Growth in poison agar medium ([2]; CAN 126, 5 μg/ml): + | Growth in poison agar medium ([3]; CA 8000 (WT), 5 μg/ml, Table 2): − | Growth in poison agar medium ([3]; CA 8000 (WT), 5 μg/ml, Table 4): − | Growth in poison agar medium ([4]; CAL 101, 5 μg/ml): + | Growth in poison agar medium ([4]; CAL 102, 5 μg/ml): + | Growth in poison agar medium ([4]; CAL 103, 5 μg/ml): + | Growth in poison agar medium ([4]; CAL 104, 5 μg/ml): + | Growth in poison agar medium ([4]; CAL 105, 5 μg/ml): + | Growth in poison agar medium ([4]; CAL 106, 5 μg/ml): + | Growth in poison agar medium ([4]; CAL 107, 5 μg/ml): + | Growth in poison agar medium ([4]; CAL 108, 5 μg/ml): +

CCn1cc(C(=O)O)c(=O)c2cc(F)c(N3CCNCC3)cc21 [Aorfloxacin]
Growth in poison agar medium [3, 7]: − | Growth in poison agar medium ([4]; CAL 101, 20 μg/ml): + | Growth in poison agar medium ([4]; CAL 102, 20 μg/ml): + | Growth in poison agar medium ([4]; CAL 103, 20 μg/ml): + | Growth in poison agar medium ([4]; CAL 104, 20 μg/ml): + | Growth in poison agar medium ([4]; CAL 105, 20 μg/ml): + | Growth in poison agar medium ([4]; CAL 106, 20 μg/ml): + | Growth in poison agar medium ([4]; CAL 107, 20 μg/ml): + | Growth in poison agar medium ([4]; CAL 108, 20 μg/ml): +
